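Five compound concentrations were applied to cells in 96-well plates for 48 hours; endpoints were derived by simple linear interpolation of the resulting dose-response curve. GI50 is the concentration that inhibits growth by half.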 Active and inactive are the calls of the source. Rule as the data show it: active = GI50 up to about 1.1 µM and inactive = higher.
Experiments:
Test in all cases: DTP human tumour cell line panel, 48 h
Malme-3M = test system: Malme-3M
UACC-257 = test system: UACC-257
SNB-78 = test system: SNB-78
SF-539 = test system: SF-539
A498 = test system: A498
NCI-H522 = test system: NCI-H522
DMS-114 = test system: DMS-114
SN12C = test system: SN12C
RXF 393 = test system: RXF 393
U-251 = test system: U-251
SK-MEL-2 = test system: SK-MEL-2
SR = test system: SR
NCI-H226 = test system: NCI-H226
SNB-75 = test system: SNB-75
COLO 205 = test system: COLO 205

SMILES: COc1ccc(/C=C/c2nnc(S)[nH]2)cc1
- GI50 (Malme-3M): > 100 µM (inactive)
- GI50 (UACC-257): > 100 µM (inactive)
- GI50 (SNB-78): > 100 µM (inactive)
- GI50 (SF-539): > 100 µM (inactive)
- GI50 (A498): > 100 µM (inactive)
- GI50 (NCI-H522): > 100 µM (inactive)
- GI50 (DMS-114): > 100 µM (inactive)
- GI50 (SN12C): > 100 µM (inactive)
- GI50 (RXF 393): > 100 µM (inactive)
- GI50 (U-251): > 100 µM (inactive)
- GI50 (SK-MEL-2): > 100 µM (inactive)
- GI50 (SR): > 100 µM (inactive)
- GI50 (NCI-H226): > 100 µM (inactive)
- GI50 (SNB-75): > 100 µM (inactive)

SMILES: Nc1nc(NC2C=C(CO)C(O)C2O)c([N+](=O)[O-])c(=O)[nH]1 (centres undefined)
- GI50 (Malme-3M): > 100 µM (inactive)
- GI50 (UACC-257): > 100 µM (inactive)
- GI50 (SNB-78): > 100 µM (inactive)
- GI50 (COLO 205): > 100 µM (inactive)
- GI50 (SF-539): > 100 µM (inactive)
- GI50 (A498): > 100 µM (inactive)
- GI50 (NCI-H522): > 100 µM (inactive)
- GI50 (DMS-114): > 100 µM (inactive)
- GI50 (SN12C): > 100 µM (inactive)
- GI50 (RXF 393): > 100 µM (inactive)
- GI50 (U-251): > 100 µM (inactive)
- GI50 (SK-MEL-2): > 100 µM (inactive)
- GI50 (SR): > 100 µM (inactive)
- GI50 (NCI-H226): > 100 µM (inactive)
- GI50 (SNB-75): > 100 µM (inactive)

SMILES: COC1=CC(=O)OC(/C=C(C)/C=C/C2=C(C)CCCC2(C)C)C1 (centres undefined)
- GI50 (Malme-3M): > 100 µM (inactive)
- GI50 (UACC-257): > 100 µM (inactive)
- GI50 (SNB-78): > 100 µM (inactive)
- GI50 (SF-539): > 100 µM (inactive)
- GI50 (A498): > 100 µM (inactive)
- GI50 (NCI-H522): > 100 µM (inactive)
- GI50 (DMS-114): > 100 µM (inactive)
- GI50 (SN12C): > 100 µM (inactive)
- GI50 (RXF 393): > 100 µM (inactive)
- GI50 (U-251): > 100 µM (inactive)
- GI50 (SK-MEL-2): > 100 µM (inactive)
- GI50 (SR): > 100 µM (inactive)
- GI50 (NCI-H226): > 100 µM (inactive)
- GI50 (SNB-75): > 100 µM (inactive)

SMILES: COc1cc(C=O)c(-c2cc(OC)c(OC)cc2C=O)cc1OC
- GI50 (Malme-3M): > 100 µM (inactive)
- GI50 (UACC-257): > 100 µM (inactive)
- GI50 (SNB-78): > 100 µM (inactive)
- GI50 (COLO 205): > 100 µM (inactive)
- GI50 (SF-539): > 100 µM (inactive)
- GI50 (A498): > 100 µM (inactive)
- GI50 (NCI-H522): > 100 µM (inactive)
- GI50 (DMS-114): 24.3 µM (inactive)
- GI50 (SN12C): > 100 µM (inactive)
- GI50 (RXF 393): 24.5 µM (inactive)
- GI50 (U-251): > 100 µM (inactive)
- GI50 (SK-MEL-2): 67 µM (inactive)
- GI50 (SR): 24.3 µM (inactive)
- GI50 (NCI-H226): > 100 µM (inactive)
- GI50 (SNB-75): > 100 µM (inactive)

SMILES: CC[As](CC)SCC1OC(OC(C)=O)C(OC(C)=O)C(OC(C)=O)C1OC(C)=O (centres undefined)
- GI50 (Malme-3M): 3.53 µM (inactive)
- GI50 (UACC-257): 14.2 µM (inactive)
- GI50 (SNB-78): 10.4 µM (inactive)
- GI50 (COLO 205): 2.42 µM (inactive)
- GI50 (SF-539): 13.1 µM (inactive)
- GI50 (A498): 20.6 µM (inactive)
- GI50 (NCI-H522): 1.75 µM (inactive)
- GI50 (DMS-114): 4.81 µM (inactive)
- GI50 (SN12C): 14.4 µM (inactive)
- GI50 (RXF 393): 3.26 µM (inactive)
- GI50 (U-251): 12.8 µM (inactive)
- GI50 (SK-MEL-2): 12.6 µM (inactive)
- GI50 (SR): 12 µM (inactive)
- GI50 (NCI-H226): 14.3 µM (inactive)
- GI50 (SNB-75): 25.5 µM (inactive)

SMILES: O=c1c2ccccc2[nH]c2ccc3c(Cl)n[nH]c3c12
- GI50 (Malme-3M): 19.1 µM (inactive)
- GI50 (UACC-257): 37.2 µM (inactive)
- GI50 (SNB-78): 55.3 µM (inactive)
- GI50 (COLO 205): 36.4 µM (inactive)
- GI50 (A498): 30.9 µM (inactive)
- GI50 (NCI-H522): 35 µM (inactive)
- GI50 (DMS-114): 57.7 µM (inactive)
- GI50 (SN12C): 33.5 µM (inactive)
- GI50 (RXF 393): 42.2 µM (inactive)
- GI50 (U-251): 53.6 µM (inactive)
- GI50 (SK-MEL-2): 30.7 µM (inactive)
- GI50 (SR): 36.1 µM (inactive)
- GI50 (NCI-H226): 0.54 µM (active)
- GI50 (SNB-75): 42.9 µM (inactive)

SMILES: CC1=C(/C(C)=N/NC(=O)c2ccccc2O)C(C)C(/C(C)=N/NC(=O)c2ccccc2O)=C(C)N1
- GI50 (Malme-3M): 29.4 µM (inactive)
- GI50 (UACC-257): 23.5 µM (inactive)
- GI50 (SNB-78): 40.6 µM (inactive)
- GI50 (SF-539): 20 µM (inactive)
- GI50 (A498): 27.8 µM (inactive)
- GI50 (NCI-H522): 17.5 µM (inactive)
- GI50 (DMS-114): 16.2 µM (inactive)
- GI50 (SN12C): 45.1 µM (inactive)
- GI50 (RXF 393): 4.73 µM (inactive)
- GI50 (U-251): 28.7 µM (inactive)
- GI50 (SR): 23.8 µM (inactive)
- GI50 (SNB-75): 11.6 µM (inactive)

SMILES: O=c1oc2c(O)c(O)c(O)c3c(=O)oc4c(O)c(O)cc1c4c23 [FLAVELLAGIC ACID]
- GI50 (Malme-3M): > 100 µM (inactive)
- GI50 (UACC-257): > 100 µM (inactive)
- GI50 (SNB-78): > 100 µM (inactive)
- GI50 (COLO 205): 99.5 µM (inactive)
- GI50 (SF-539): > 100 µM (inactive)
- GI50 (A498): > 100 µM (inactive)
- GI50 (NCI-H522): 46.1 µM (inactive)
- GI50 (DMS-114): 29.7 µM (inactive)
- GI50 (SN12C): 18.6 µM (inactive)
- GI50 (RXF 393): > 100 µM (inactive)
- GI50 (U-251): 19.3 µM (inactive)
- GI50 (SK-MEL-2): > 100 µM (inactive)
- GI50 (SR): > 100 µM (inactive)
- GI50 (NCI-H226): 83 µM (inactive)
- GI50 (SNB-75): 47.6 µM (inactive)
